Test results taken from the NIST ThermoML archive (doi:10.1016/j.jct.2010.10.018).

Experiment: xn = mol fraction of the nth substance listed
Conditions: 101 kPa, Liquid, Vibrating tube method

CC(C)(C)O [2-methylpropan-2-ol] + O
mass density [kg/m3]
Conditions	323.15 K	333.15 K	348.15 K
x1 = 0.00089	–	982.51	974.22
x1 = 0.00146	–	982.1	973.75
x1 = 0.00269	–	981.23	973.04
x1 = 0.00403	–	980.3	972.25
x1 = 0.00513	–	979.52	971.5
x1 = 0.00761	–	977.87	969.81
x1 = 0.01405	–	973.36	965
x1 = 0.0248	–	965.88	957.02
x1 = 0.03494	–	959.46	949.37
x1 = 0.04241	–	954.72	944.24
x1 = 0.05218	–	947.17	936.2
x1 = 0.05887	–	942.74	931.84
x1 = 0.06973	–	935.49	924.4
x1 = 0.1125	–	908.96	896.84
x1 = 0.1566	–	885.44	872.83
x1 = 0.208	–	864.42	850.42
x1 = 0.2408	–	852.37	838.25
x1 = 0.3023	–	834.38	820.05
x1 = 0.3451	–	823.51	808.66
x1 = 0.4045	–	810.41	795.17
x1 = 0.4225	–	807.23	792.36
x1 = 0.4653	–	799.78	784.18
x1 = 0.5344	798.37	788.31	772.8
x1 = 0.6029	789.18	778.96	763.18
x1 = 0.6909	779.13	768.71	752.22
x1 = 0.726	775.51	765.01	748.55
x1 = 0.7999	769.18	758.52	741.72
x1 = 0.8711	763	752.17	734.96
x1 = 0.9183	759.52	748.6	731.4
x1 = 0.9574	756.76	745.7	728.29
x1 = 0.9652	756.21	745.12	727.67
x1 = 0.9795	755.31	744.15	726.63
x1 = 0.9821	755.09	743.92	726.41
x1 = 0.9944	754.31	743.11	725.51
x1 = 0.996	754.22	743.02	725.4
x1 = 1	753.94	742.7	725.05
